ChEMBL document CHEMBL3885861, “Open TG-GATES”

Organism: Rattus norvegicus
Experiment: Open TG-GATES - Regimen: Daily Repeat
Type: toxicity, organism-based, Sprague-Dawley
Set-up: regimen Daily Repeat, gender Male, age 6 weeks
Conditions: in vivo, po, route gavage; for KIDNEY_L / KIDNEY_R / KIDNEY_TOTAL: tissue Kidney; for ALP / ALT / AST / BUN / CRE / Ca / DBIL / IP / K / Na / PL / RALB / TBIL / TC / TG / TP / gamma-GTP / LDH: tissue Plasma; for LIVER: tissue Liver
[1] = 120 mg/kg, 72 h, tissue Blood, dose level Middle, time 3 day
[2] = 120 mg/kg, 72 h, dose level Middle, time 3 day
[3] = 120 mg/kg, […], dose level Middle, time 7 day
[4] = 120 mg/kg, […], dose level Middle, time 14 day
[5] = 120 mg/kg, […], dose level Middle, time 28 day
[6] = 120 mg/kg, […], tissue Blood, dose level Middle, time 7 day
[7] = 120 mg/kg, […], tissue Blood, dose level Middle, time 14 day
[8] = 120 mg/kg, […], tissue Blood, dose level Middle, time 28 day
[9] = 400 mg/kg, 72 h, tissue Blood, dose level High, time 3 day

What does the source list for `CCC(C)(C)C(=O)O[C@H]1C[C@@H](C)C=C2C=C[C@H](C)[C@H](CC[C@@H]3C[C@@H](O)CC(=O)O3)[C@H]21` [SIMVASTATIN]?
Ht [1]: 41%; Lym [1]: 80.2%; MCHC [1]: 33.2%; Mono [1]: 8.4%; Neu [1]: 10.2%; Plat [1]: 119.9 x10_4/uL; RBC [1]: 644.2 x10_4/ul; Ret [1]: 5.5%; WBC [1]: 81 x10_2/uL; KIDNEY_L [2]: 1 g; KIDNEY_R [2]: 1 g; KIDNEY_TOTAL [2]: 2 g; ALP [2]: 885.4 IU/L; ALT [2]: 42 IU/L; AST [2]: 62.2 IU/L; BUN [2]: 16.4 mg/dL; CRE [2]: 0.6 mg/dL; Ca [2]: 10.8 mg/dL; DBIL [2]: 0.012 mg/dL; IP [2]: 7.3 mg/dL; K [2]: 4.4 meq/L; Na [2]: 139.6 meq/L; PL [2]: 131.2 mg/dL; RALB [2]: 3.9 g/dL; TBIL [2]: 0.3 mg/dL; TC [2]: 81.6 mg/dL; TG [2]: 48.2 mg/dL; TP [2]: 5.6 g/dL; gamma-GTP [2]: 1.4 IU/L; TERMINAL_BW [3]: 245.2 g; TERMINAL_BW [4]: 292.4 g; TERMINAL_BW [5]: 375.8 g; Bas [6]: 0%; Eos [6]: 1%; Fbg [6]: 222.8 mg/dL; Hb [6]: 13.3 g/dL; Ht [6]: 40%; Lym [6]: 83.8%; MCHC [6]: 33.1%; Mono [6]: 7.4%; Neu [6]: 8.4%; PT [6]: 11 s; Plat [6]: 123.4 x10_4/uL; RBC [6]: 630.6 x10_4/ul; Ret [6]: 3.3%; WBC [6]: 106.6 x10_2/uL; Bas [7]: 0%; Eos [7]: 0.8%; Fbg [7]: 223.6 mg/dL; Hb [7]: 14.2 g/dL; Ht [7]: 42.5%; Lym [7]: 80%; MCHC [7]: 33.3%; Mono [7]: 5.2%; Neu [7]: 14.4%; Plat [7]: 121.2 x10_4/uL; RBC [7]: 698 x10_4/ul; Ret [7]: 6%; Bas [8]: 0%; Eos [8]: 1%; Fbg [8]: 238.8 mg/dL; Hb [8]: 15 g/dL; Ht [8]: 45.4%; Lym [8]: 83.4%; MCHC [8]: 33.1%; MCV [8]: 58.3 fL; Mono [8]: 5.2%; PT [8]: 11.8 s; Plat [8]: 116.8 x10_4/uL; RBC [8]: 778.6 x10_4/ul; Ret [8]: 2.4%; WBC [8]: 114.5 x10_2/uL; KIDNEY_L [3]: 1.1 g; KIDNEY_R [3]: 1.1 g; KIDNEY_TOTAL [3]: 2.2 g; KIDNEY_L [4]: 1.2 g; KIDNEY_R [4]: 1.2 g; KIDNEY_TOTAL [4]: 2.4 g; KIDNEY_L [5]: 1.4 g; KIDNEY_R [5]: 1.4 g; KIDNEY_TOTAL [5]: 2.7 g; LIVER [3]: 13.1 g; LIVER [4]: 14.5 g; LIVER [5]: 17.7 g; ALP [3]: 848 IU/L; ALT [3]: 38.2 IU/L; AST [3]: 67.4 IU/L; BUN [3]: 21.4 mg/dL; CRE [3]: 0.6 mg/dL; DBIL [3]: 0.012 mg/dL; IP [3]: 7.1 mg/dL; K [3]: 4.8 meq/L; LDH [3]: 124.8 IU/L; Na [3]: 141.2 meq/L; PL [3]: 140.8 mg/dL; RALB [3]: 3.9 g/dL; TBIL [3]: 0.3 mg/dL; TC [3]: 74.6 mg/dL; TG [3]: 78.8 mg/dL; TP [3]: 5.8 g/dL; gamma-GTP [3]: 0.8 IU/L; ALP [4]: 763.4 IU/L; ALT [4]: 37.6 IU/L; AST [4]: 67 IU/L; BUN [4]: 20.6 mg/dL; CRE [4]: 0.6 mg/dL; Ca [4]: 11 mg/dL; DBIL [4]: 0.01 mg/dL; IP [4]: 7.2 mg/dL; K [4]: 4.3 meq/L; LDH [4]: 110.6 IU/L; Na [4]: 140.4 meq/L; PL [4]: 150.4 mg/dL; RALB [4]: 4 g/dL; TBIL [4]: 0.4 mg/dL; TC [4]: 76.2 mg/dL; TG [4]: 119.6 mg/dL; TP [4]: 5.9 g/dL; gamma-GTP [4]: 1.2 IU/L; ALP [5]: 716 IU/L; ALT [5]: 36.6 IU/L; AST [5]: 59.4 IU/L; BUN [5]: 19.8 mg/dL; CRE [5]: 0.7 mg/dL; Ca [5]: 10.9 mg/dL; DBIL [5]: 0.016 mg/dL; IP [5]: 6.4 mg/dL; K [5]: 4.2 meq/L; LDH [5]: 107.8 IU/L; Na [5]: 142.6 meq/L; PL [5]: 139.6 mg/dL; RALB [5]: 4 g/dL; TBIL [5]: 0.3 mg/dL; TC [5]: 71.4 mg/dL; TG [5]: 128.2 mg/dL; TP [5]: 6.2 g/dL; gamma-GTP [5]: 2.2 IU/L; TERMINAL_BW (400 mg/kg, 72 h, dose level High, time 3 day): 181.9 g; Bas [9]: 0%; Eos [9]: 1%; Fbg [9]: 202.2 mg/dL; Hb [9]: 15.1 g/dL; Ht [9]: 45.5%
